Measured values: US7968556B2, “Heteroaryl compounds, compositions thereof, and methods of treatment therewith” (Signal Pharmaceuticals, LLC, priority 2006, dated 2011)

Columns and labels:
[1] = target: T1, IKK-2 (Homo sapiens, UniProt O14920, S177E/S181E); assay: IKK-2 screening assay (IKK2EE 33P Assay / IKK2EE NEMO HTRF Assay); assay type: biochemical
T1 sequence (O14920 1-756 S177E/S181E): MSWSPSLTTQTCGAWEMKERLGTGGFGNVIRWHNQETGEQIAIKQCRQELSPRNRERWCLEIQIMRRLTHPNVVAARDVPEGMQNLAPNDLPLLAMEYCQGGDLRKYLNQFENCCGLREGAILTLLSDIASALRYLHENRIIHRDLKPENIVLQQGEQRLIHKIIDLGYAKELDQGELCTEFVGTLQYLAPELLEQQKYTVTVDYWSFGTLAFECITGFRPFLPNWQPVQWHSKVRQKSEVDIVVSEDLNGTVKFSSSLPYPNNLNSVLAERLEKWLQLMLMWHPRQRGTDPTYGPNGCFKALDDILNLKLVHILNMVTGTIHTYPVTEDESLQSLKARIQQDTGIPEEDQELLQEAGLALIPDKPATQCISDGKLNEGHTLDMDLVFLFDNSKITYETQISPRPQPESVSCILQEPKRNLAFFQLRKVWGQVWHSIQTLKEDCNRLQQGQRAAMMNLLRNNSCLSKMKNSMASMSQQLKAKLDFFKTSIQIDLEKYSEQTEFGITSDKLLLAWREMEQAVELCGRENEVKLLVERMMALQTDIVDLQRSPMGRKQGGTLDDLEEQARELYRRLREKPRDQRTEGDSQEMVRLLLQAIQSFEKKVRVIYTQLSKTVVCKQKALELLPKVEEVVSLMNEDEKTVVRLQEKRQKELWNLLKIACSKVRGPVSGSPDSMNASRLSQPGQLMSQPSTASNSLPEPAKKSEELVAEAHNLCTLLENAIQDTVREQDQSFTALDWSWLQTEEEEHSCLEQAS
Description: The following is an example of an assay that can be used to determine the IKK2EE inhibitory activity of a test compound.
A reaction buffer (pH 7.8) is prepared containing HEPES (20 mM), MgCl2 (10 mM), EDTA (0.1 mM), DTT (1 mM) and Triton X-100 (0.004%). IKK2EE (0.75 μg/ml is used. GST-IKBα (50 μg/ml) is used as substrate. Adenosine 5′-triphosphate (1.5 μM with ^33P-ATP 5 nCi/μl) is used. Reactions are stopped with trichloroacetic acid (6.25%).
Appropriate amounts of test compounds or controls in 100% DMSO are added to the assay plate. A peptide-substrate solution (PSS) is prepared by adding peptide stock to an appropriate volume of buffer (peptide concentration in the PSS will be about 100 μg/ml). An enzyme-peptide solution (EPS) is prepared by adding enzyme stock to an appropriate volume of PSS (the enzyme concentration in the EPS will be about 1 μg/ml). An ATP solution is prepared by adding ATP stock to an appropriate volume of buffer (the ATP concentration will be 15 μM).
85 μl of EPS is added to the assay wells (or PSS to positive control wells) of 96 well polypropylene plates. The ATP solution is then completed by adding ^33P-ATP (to a final concentration of 50 μCi/ml).
The reaction is initiated by adding 10 μl ATP solution to each well. Plates are shaken from about 12 seconds and allowed to incubate at room temperature for 1 hours. 100 μl of trichloroacetic acid solution (12.5%) is added to stop the reaction and the plates are incubated at room temperature for at least 10 minutes. The assay plates are harvested onto a Millipore Multiscreen harvest Plate FC using an appropriate harvester and the harvest plates are washed with 1×PBS solution for about 10 seconds (continuous flow). Harvest plates are allowed to dry thoroughly and the bottoms of the plates are sealed. 20-50 μl of Microscint20 is added to each well, tops are sealed and plates are read using an appropriate scintillation counter.
A reaction buffer (pH 7.6) is prepared containing HEPES (20 mM), MgCl2 (10 mM), EDTA (0.05 mM), DTT (1 mM) and Triton X-100 (0.004%). IKK2EE-NEMO (0.7 μg/ml is used. GST-IKBα (0.5 μg/ml) is used as substrate. Adenosine 5′-triphosphate (1.5 μM) is used. Detection reagents used are mouse anti-P-IKBα (30 ng/ml), Eu anti-mouse (300 ng/ml) and Cy5 anti-GST (11.5 μg/ml). Reactions are stopped with EDTA (20 mM).
An enzyme solution (ES) is prepared by adding enzyme stock to an appropriate volume of buffer (enzyme concentration in the ES will be about 1.7 ng/ml). A detection mixture (DM) is prepared by adding ATP (final conc. 3.75 μM), mouse anti-P-IKBα (final conc. 75 ng/ml), GST-IKBα (final conc. 1.26 μg/ml), Eu anti-mouse in buffer (final conc. 750 ng/ml).
5 μl of compound (solvated in 10% DMSO) is added to assay wells (or 10% DMSO to control wells) of low binding reaction plates. […] ES is added to assay wells (or buffer to control wells) and the reaction is initiated by adding 10 μl DM to all wells. Plates are incubated at room temperature for 45 minutes. Stop mixture is prepared by adding EDTA (final conc. 70 mM) and Cy5 anti-GST (final conc. 40 μg/ml) to an appropriate volume of buffer. Stop mixture is added and plates are shaken for 20 seconds and incubated at room temperature for at least 3 hours (preferably in the dark). Plates are read on an Analyst HT using Multi-Method HTRF.

Compound	IC50 [1] [µM]	melting point [°C]
NC(=O)c1nc(-c2cccnc2)nc2c1[nH]c(=O)n2[C@H]1CC[C@H](O)CC1 [Compound 50, 9-(trans-4-Hydroxycyclohexyl)-8-oxo-2-(pyridin-3-yl)-8,9-dihydro-7H-purine-6-carboxamide]	0.1 to 5	343 to 345
COc1ccccc1-n1c(=O)[nH]c2c(C(N)=O)nc(-c3ccnc(O)c3)nc21 [Compound 13, 2-(2-hydroxypyridin-4-yl)-9-(2-methoxyphenyl)-8-oxo-8,9-dihydro-7H-purine-6-carboxamide]	> 30	360 to 362
COc1ccccc1-n1c(=O)[nH]c2c(C(N)=O)nc(-c3ccc(O)cc3)nc21 [Compound 8, 2-(4-hydroxyphenyl)-9-(2-methoxyphenyl)-8-oxo-8,9-dihydro-7H-purine-6-carboxamide]	> 30	362 to 363
